Results reported in US20090075867A1, “Triazine compounds and compositions thereof for the treatment of cancers” (priority 2005, published 2009).
Like-named read-outs stand apart in the source and are kept apart here.

Key:
[1] = test system: PBML, Peripheral Blood Mononuclear Leukocytes; assay: In vitro cytotoxicity (MTT) on PBML; format: cell-based; settings: Leukocyte
Protocol: (§1) This assay was performed to determine the effect of compounds of the present invention on cell cytotoxicity. Cells were incubated in presence or absence of compounds in their respective conditioned media. […] The supernatant was discarded and 100 μl of dimethylsulfoxide (DMSO) was added. Absorbance was read at […] with an ELISA Tecan SUNRISE™ plate reader. The control group consisted of cells without compounds and is referred to as 100% of viable cells. IC50 was determined using PRISM® software.
(§2) The predictive utility of cell-based cytotoxicity assays to assess the potential in vivo anticancer activity of compounds with selected cancer cell lines is well established in the art and the use of whole cells, instead of isolated protein receptors or enzymes, provides a more reliable determination of activity. See, for example, Paull et al. J. Natl. Cancer Inst. 81:1088-1092 (1989); Monks et al. J. Natl. Cancer Inst. 83:757-766 (1991); Bandes et al. J. Natl. Cancer Inst. 86:770-775 (1994); and Kamate et al. Intl. J. Cancer 100:571-579 (2002).

[2] = test system: NHDF, Normal Human Dermal Fibroblast; assay: In vitro cytotoxicity (MTT) on NHDF; format: cell-based
Protocol: as §1, §2

[3] = test system: CAKI-2, human kidney cell; assay: In vitro cytotoxicity (MTT) on CAKI-2; format: cell-based
Protocol: as §1, §2

Hep-G2, human liver cell = assay: In vitro cytotoxicity (MTT) on Hep-G2; format: cell-based
Protocol: as §1, §2

[4] = test system: PC-3, human prostate carcinoma cell; assay: In vitro cytotoxicity (MTT) on PC-3; format: cell-based
Protocol: as §1, §2

[5] = test system: B16F10, murine melanoma cell; assay: In vitro cytotoxicity (MTT) on B16F10; format: cell-based; settings: Mus musculus, B16-F10
Protocol: as §1, §2

DA-3 = assay: In vitro cytotoxicity (MTT) on DA-3; format: cell-based, BALB/c mice; settings: Mus musculus
Protocol: as §1, §2
(§3) The syngeneic tumor DMBA3 (DA-3, breast carcinoma model) arose from a preneoplastic lesion treated with 7,12-dimethylbenzanthracene in female BALB/c mice. DA-3 cells were grown as monolayer cultures in plastic flasks in RPMI-1640 containing 0.1 mM nonessential amino acids, 0.1 μM sodium pyruvate, 2 mM L-glutamine. This was further supplemented with 50 μM 2-mercaptoethanol and 10% fetal bovine serum. The DA-3 tumors were serially passage in vivo by intradermal inoculation of 5×10^5 viable tumor cells to produce localized tumors in 6- to 8-week old BALB/c mice. The animals were then serially monitored by manual palpation for evidence of tumor. Mice were treated at day 11, 18 and 25 with cyclophosphamide (100 mg/kg) and at day 11, 12, 13, 15, 18, 20, 22, 25, 27 and 29 with compound 1, 2, 3 or 8 (50 mg/kg). Mice were sacrificed at day 43. Serial tumor volume was obtained by bi-dimensional diameter measurements with calipers, using the formula 0.4 (a×b^2) where “a” was the major tumor diameter and “b” the minor perpendicular diameter. […] The National Cancer Institute (USA) defines the product as effective if T/C is ≦40%.

[6] = test system: P815, murine mastocytoma cell; assay: In vitro cytotoxicity (MTT) on P815; format: cell-based; settings: Mus musculus
Protocol: as §1, §2

B16F10 primary tumors = assay: Antitumor effects on a primary B16F10 melanoma tumor; format: in vivo, C57BL/6 mice; settings: 50 mg/kg i.v. on day 14, 16 and 18
Protocol: Female 6-8 week old C57BL/6 mice were injected intradermally on day 0 with 3.75×10^4 B16F10 melanoma cells from ATCC (source of cell culture, Dr. I. J. Fidler). On day 14, tumors reached […] and animals were randomized for treatments. Animals were then injected i.v. with saline (negative control) or compounds (50 mg/kg) on day 14, 16 and 18 or 10 mg/kg doxorubicin (Dox, positive control) on day 14. Mice were sacrificed on day 29. Body weight and tumor volume were recorded. Serial tumor volume was obtained by bi-dimensional diameter measurements with calipers, using the formula 0.4 (a×b^2) where “a” was the major tumor diameter and “b” the minor perpendicular diameter.
T/C is calculated as (Treated tumor volume/Control tumor volume)×100%. Compound 2 induced a weak reduction (T/C around 70%) of the tumor volume compared to the control.

B16F10 lung metastases = format: in vivo; settings: for inhibition of the number of tumor nodules in lungs: FIG. 3, 50 mg/kg i.v. on day -3, -2, -1, 3, 5 and 7, p<0.001; for reduction of the number of tumor nodules: FIG. 4
Protocol: Female 6-8-week old C57BL/6 mice were injected intravenously on day 0 with 1-2.5×10^5 B16F10 melanoma cells from ATCC (source of cell culture, Dr. I. J. Fidler). B16F10 melanoma cells are a highly metastatic cell line which preferentially forms nodules in the lungs. Cells were cultured in DMEM supplemented with 10% fetal bovine serum. […] Fourteen days after inoculation, mice were sacrificed and their lungs were removed, rinsed in PBS, and placed in Bouin's fixative. The number of metastatic nodules (black colonies) on the surface of the lungs were counted.

DA-3 breast tumors = assay: Antitumor effects on a primary DA-3 breast tumor; format: in vivo, BALB/c mice
Protocol: as §3
In other trials, mice were treated with one intratumoral injection of compound 2 or cyclophosphamide (three doses) or intratumoral injection of compound 2 in combination with cyclophosphamide.

[7] = FIG. 8, combination of cyclophosphamide and intratumoral injection of compound 2

| Structure (SMILES) | IC50 ([1]; 24-hour cell culture) [µM] | IC50 ([1]; 72-hour cell culture) [µM] | IC50 ([2]; 24-hour cell culture) [µM] | IC50 ([2]; 72-hour cell culture) [µM] | IC50 ([4]; 24-hour cell culture) [µM] | IC50 ([4]; 72-hour cell culture) [µM] | IC50 ([5]; 24-hour cell culture) [µM] | IC50 (DA-3; 24-hour cell culture) [µM] | IC50 ([6]; 24-hour cell culture) [µM] | IC50 ([6]; 72-hour cell culture) [µM] | inhibition of the number of tumor nodules in lungs (B16F10 lung metastases) | also measured |
| --- | --- | --- | --- | --- | --- | --- | --- | --- | --- | --- | --- | --- |
| Nc1ccc(CCNc2nc(Nc3ccc(CCNc4nc(NCCO)nc(Nc5cccc(N)c5)n4)cc3)nc(Nc3cccc(N)c3)n2)cc1 [Compound 2] | > 100 | 10 | > 100 | 16 | 2.3 | 4 | 1 | 2 | 66.5 | 2.2 | significant inhibition | IC50 ([3]; 24-hour cell culture): > 40 µM; IC50 ([3]; 72-hour cell culture): > 40 µM; IC50 (Hep-G2, human liver cell; HepG2, 24-hour cell culture): > 40 µM; IC50 (Hep-G2, human liver cell; HepG2, 72-hour cell culture): > 40 µM; IC50 ([5]; 72-hour cell culture): 1 µM; IC50 (DA-3; 72-hour cell culture): 1.9 µM; T/C (Treated tumor volume/Control tumor volume) (B16F10 primary tumors; FIG. 1 trial): around 70%; reduction of the number of tumor nodules (B16F10 lung metastases; compound 2 in combination with doxorubicin (1 mg/kg)): 95%; reduction of the number of tumor nodules (B16F10 lung metastases; used alone, compound 50 mg/kg i.v., doxorubicin 1 mg/kg): 87%; T/C, inhibition of tumor volume (DA-3 breast tumors; [7]): 10%; total tumor regressions at day 46 (DA-3 breast tumors; [7]): four; total tumor regression at day 46 (DA-3 breast tumors; FIG. 8, one intratumoral injection of compound 2 alone): one |
| Nc1ccc(CCNc2nc(NCCCCO)nc(Nc3cccc(N)c3)n2)cc1 [Compound 8] | > 100 | > 100 | > 100 | > 100 | 94 | 100 | 33 | 85 | > 100 | 92 | significant inhibition | T/C (Treated tumor volume/Control tumor volume) (B16F10 primary tumors; FIG. 2 trial): around 70%; inhibition of the tumor volume (DA-3 breast tumors; FIG. 6, 50 mg/kg): All compounds except compound 8 induced a significant inhibition |
